Legend:
[1] = system: ED-1-positive macrophages / elastin in aortic wall; experiment: Histology and ED-1 macrophage immunohistochemistry of elastase-perfused aortas; format: in vivo, Sprague-Dawley rats
Description: In other experiments, male rats were randomized to implantation of an estrogen pellet or sham implantation (n=13, each). The former involved the subcutaneous implantation of a 21-day slow-release 0.1-mg 17-β-estradiol pellet (Innovative Research of America, Sarasota, Fla.) in the posterior neck. Sham rats underwent the same implantation procedure without insertion of any pellet. This particular estradiol dose results in serum estradiol levels at 2 to 3 weeks of 44.7±6.1 pg/mL compared with 15.0±2.2 pg/mL in control rats (P<0.05). Rat aortas from both groups were subjected to elastase perfusion 5 days later. The aortas were then removed for study 7 or 14 days after elastase perfusion. All excised aortas were fixed in 10% formalin for 18 hours, followed by immersion in 70% ethanol for 24 hours. Aortas were then imbedded in paraffin and 4-μm sections were prepared with hematoxylin and eosin and Verhoeff-Van Gieson stains. Immunohistochemistry was undertaken after deparaffinization, rehydration, and unmasking using Trilogy (Cell Marque Corp, Hot Springs, Ariz.) in a Princess model pressure cooker (Cell Marque). Endogenous peroxidase activity was then blocked using 3% hydrogen peroxide in methanol. To help ensure that rejection was not occurring in elastase-perfused or transplanted animals, anti-T lymphocyte immunohistochemistry was performed. […]

MMP-2 = MMP-2 activity in media of IL-1β stimulated aortic explants from pre-treated male rats; format: in vivo, rat
Method: Experiment III: Male rats underwent sustained 17-β-estradiol exposure using extended-release, subcutaneously implanted pellets prior to sacrifice and aortic explanation. The explants were stimulated with IL-1β, and MMP-2 activity in the conditioned media was then determined.

AAAs = settings: apolipoprotein E-deficient murine model; cited from earlier work
[2] = system: elastase-perfused infrarenal abdominal aorta of male rats; experiment: Elastase perfusion aneurysm model after estrogen pellet implantation, aortic diameter; format: in vivo, Sprague-Dawley rats; settings: 0.1-mg 21-day slow-release pellet s.c.
Method: Pancreatic porcine elastase perfusion of the rat aortas was performed as described previously. (Anidjar S, et al., Circulation, 82:973-981 (1990)). Male and female rats (n=15, each) were anesthetized with 2-2.5% isoflurane inhalation, and the infrarenal abdominal aorta was isolated under sterile conditions. Digital video micrometry was performed to directly measure outer aortic diameter. Specifically, images of the aorta were obtained using a Spot Insight Color Optical Camera (Diagnostic Instruments, Sterling Heights, Mich.) attached to an operating microscope (Nikon, Melville, N.Y.). Aortic diameters were then measured at the level of the left renal vein, the mid-infrarenal aorta, and the aortic bifurcation in triplicate using Image Pro Express software (Media Cybernetics, Inc, Silver Spring, Md.). Temporary proximal and distal aortic control was obtained using temporary 4-0 cotton suture loops, following which an aortotomy was made near the aortic bifurcation with a 30-gauge needle. […] At 7 or 14 days, aortas were re-exposed and aortic diameters were re-measured in vivo. […] The infrarenal aorta was then removed and subjected to histological study, immunohistochemistry, and quantitative polymerase chain reaction (PCR). […]

MMP-9 = MMP-9 activity (zymography) in media of IL-1β stimulated aortic explants from pretreated male rats; format: in vivo, Sprague-Dawley rats; settings: male rats treated 3 weeks with 0.1 mg 21-day extended release pellet, IL-1β stimulation; control 75.3, p<0.03
Method: Zymography supplies were purchased from Novex. MMP distribution after treatment of RASMC with IL-1β and increasing concentrations of 17-β-estradiol was determined. Gelatin substrate zymograms were prepared using precast 10% SDS-polyacrylamide gels containing 1 mg/mL of gelatin. Equal volumes of experimental media samples were diluted into 2× tris-glycine SDS sample buffer and electrophoretically separated under nonreducing conditions. Proteins were renatured in 2.7% Triton X-100, and the gels were incubated overnight at 37° C. in 50 mmol/L tris-HCl containing 5 mmol/L CaCl2 and 2% Brij 35. After overnight staining with Coomassie blue R-250 and de-staining for 4 hours with 10% acetic acid and 40% methanol in water, gelatinase activity was evident by clear bands against a dark blue background. Male Sprague-Dawley rats (190 g to 210 g) were obtained from Charles River Laboratories. Subcutaneous neck implantation of a 21-day slow release 0.1 mg 17-β-estradiol pellet (Innovative Research of America) was performed under general inhalational anesthesia. This particular estradiol dose results in serum estradiol levels at 2 to 3 weeks of 44.7±6.1 pg/mL compared with 15.0±2.2 pg/mL in control rats (p<0.05). Three weeks after pellet implantation, the infrarenal aorta was explanted under general anesthesia. […]

**Q.** Which results are given for `C[C@]12CC[C@@H]3c4ccc(O)cc4CC[C@H]3[C@@H]1CC[C@@H]2O` [17-β-estradiol]?
**A.** elastin fragmentation ([1]; estradiol treated male rats' aortas vs sham): less prominent; ED-1-positive cell counts ([1]; male rats receiving estradiol, sham 5.2±0.5, P=0.0006): 1.8±0.3 cells/HPF; MMP-2 activity in the media of whole-aortic explants (MMP-2; male rats pre-treated with extended-release s.c. pellets, explants stimulated with IL-1β, control 4.35×10^5, P=0.002): 2.0×10^5 O.D./mg protein; decrease in MMP-2 activity in the media of whole-aortic explants (MMP-2; male rats pre-treated, vs control): 2 fold; development of AAAs (AAAs): attenuate the development of AAAs; aortic expansion (increase in aortic diameter) ([2]; 7 days after elastase perfusion, sham 197%±39%, P=0.010): 124%±19; aneurysm size (increase in aortic diameter) ([2]; 14 days after elastase perfusion, sham 538%±105, P=0.0226): 241%±57; MMP-9 activity in conditioned media of aortic explants (MMP-9): 29.9 OD×10^3/mg protein

Source: patent US20090082322A1, “Gender Differences in Experimental Aortic Aneurysm Formation” (THE REGENTS OF THE UNIVERSITY OF MICHIGAN, priority 2004, published 2009)
